From ChEMBL document CHEMBL5665443, “Enzyme Inhibitor Single Concentration assay results for EUbOPEN Chemogenomics Library” (2024)

Assays:
[1] = target: N-glycosylase/DNA lyase (Homo sapiens) (UniProt O15527);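 note: OGG1 cleavage of a quenched duplex DNA oligonucleotide, coupled to APE1 for strand incision, read as fluorescence at 594 nm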
Description: Inhibition of OGG1 by quantifying inhibition of OGG1-mediated cleavage and dissociation of quenched duplex DNA oligonucleotides, measured as fluorescence at 594 nm. To generate a functional strand incision and increase turn-over this assay is coupled to APE1.

[2] = target: T1, Endonuclease 8-like 2 (Homo sapiens) (UniProt Q969S2); conditions: Hit No;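 note: fluorescence at 594 nm reports NEIL2 cutting and release of a quenched double-stranded DNA oligo substrate, reduced signal read as inhibition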
T1 sequence (whole entry): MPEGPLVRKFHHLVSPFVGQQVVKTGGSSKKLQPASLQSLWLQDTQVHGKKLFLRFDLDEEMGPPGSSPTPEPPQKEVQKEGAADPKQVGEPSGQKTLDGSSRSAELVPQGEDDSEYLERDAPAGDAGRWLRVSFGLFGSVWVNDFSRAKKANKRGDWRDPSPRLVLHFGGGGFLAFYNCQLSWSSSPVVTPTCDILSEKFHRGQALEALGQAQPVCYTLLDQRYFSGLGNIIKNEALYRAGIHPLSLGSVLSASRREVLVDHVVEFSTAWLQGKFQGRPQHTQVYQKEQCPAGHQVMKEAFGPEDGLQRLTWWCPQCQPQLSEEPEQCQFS
Description: Inhibition of NEIL2 by quantifying inhibition of NEIL2-mediated cleavage and dissociation of quenched duplex DNA oligonucleotides, measured as fluorescence at 594 nm.

[3] = target: DNA-3-methyladenine glycosylase (Homo sapiens) (UniProt P29372); conditions: Compound Concentration 10.0 uM, Hit No;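 note: enzyme assay where MPG cuts a quenched duplex DNA oligonucleotide probe, paired with APE1 for strand incision and turnover, read as fluorescence at 594 nm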
Chain of DNA-3-methyladenine glycosylase (Homo sapiens) (P29372 whole entry): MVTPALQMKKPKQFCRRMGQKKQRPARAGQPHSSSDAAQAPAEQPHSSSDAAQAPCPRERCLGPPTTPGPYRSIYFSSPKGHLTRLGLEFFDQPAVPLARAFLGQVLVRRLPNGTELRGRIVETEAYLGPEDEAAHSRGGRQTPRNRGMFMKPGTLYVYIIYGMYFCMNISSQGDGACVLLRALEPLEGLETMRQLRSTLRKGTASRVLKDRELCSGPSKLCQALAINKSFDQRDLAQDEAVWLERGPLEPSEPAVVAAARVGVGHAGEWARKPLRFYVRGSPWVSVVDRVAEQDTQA
Description: Inhibition of MPG by quantifying inhibition of MPG-mediated cleavage and dissociation of quenched duplex DNA oligonucleotides, measured as fluorescence at 594 nm. To generate a functional strand incision and increase turn-over this assay is coupled to APE1.

[4] = target: Endonuclease 8-like 1 (Homo sapiens) (UniProt Q96FI4); conditions: Hit No;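 note: fluorescence at 594 nm from quenched duplex DNA oligonucleotides released by NEIL1 cleavage and strand separation, reported as reduction of this enzyme activity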
Chain of Endonuclease 8-like 1 (Homo sapiens) (Q96FI4 whole entry): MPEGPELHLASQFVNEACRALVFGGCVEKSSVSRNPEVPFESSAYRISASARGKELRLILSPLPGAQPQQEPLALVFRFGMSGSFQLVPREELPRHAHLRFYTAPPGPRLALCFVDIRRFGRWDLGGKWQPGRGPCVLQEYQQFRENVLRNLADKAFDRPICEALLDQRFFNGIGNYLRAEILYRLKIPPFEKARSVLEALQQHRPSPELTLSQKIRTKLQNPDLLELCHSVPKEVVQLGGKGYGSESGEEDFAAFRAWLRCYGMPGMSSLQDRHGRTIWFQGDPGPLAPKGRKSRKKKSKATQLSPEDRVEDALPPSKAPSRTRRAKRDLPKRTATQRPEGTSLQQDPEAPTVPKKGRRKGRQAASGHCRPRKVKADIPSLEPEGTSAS
Description: Inhibition of NEIL1 by quantifying inhibition of NEIL1-mediated cleavage and dissociation of quenched duplex DNA oligonucleotides, measured as fluorescence at 594 nm.

[5] = target: G/T mismatch-specific thymine DNA glycosylase (Homo sapiens) (UniProt Q13569); conditions: Hit No;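 note: human TDG cleavage of quenched duplex DNA oligonucleotides coupled to APE1, strand release read as fluorescence at 594 nm, inhibition of TDG activity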
Chain of G/T mismatch-specific thymine DNA glycosylase (Homo sapiens) (Q13569 whole entry): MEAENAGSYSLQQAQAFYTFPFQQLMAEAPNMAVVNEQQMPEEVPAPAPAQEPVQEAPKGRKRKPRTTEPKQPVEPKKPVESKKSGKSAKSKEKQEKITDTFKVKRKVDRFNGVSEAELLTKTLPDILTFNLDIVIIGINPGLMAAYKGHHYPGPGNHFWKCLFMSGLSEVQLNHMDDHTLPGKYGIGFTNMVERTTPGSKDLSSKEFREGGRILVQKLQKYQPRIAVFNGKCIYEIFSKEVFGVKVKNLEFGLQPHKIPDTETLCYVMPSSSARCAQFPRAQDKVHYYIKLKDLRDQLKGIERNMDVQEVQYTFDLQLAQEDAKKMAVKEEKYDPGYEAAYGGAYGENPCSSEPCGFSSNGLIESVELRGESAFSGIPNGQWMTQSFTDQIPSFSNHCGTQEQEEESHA
Description: Inhibition of TDG by quantifying inhibition of TDG-mediated cleavage and dissociation of quenched duplex DNA oligonucleotides, measured as fluorescence at 594 nm. To generate a functional strand incision and increase turn-over this assay is coupled to APE1.

[6] = target: T2, Single-strand selective monofunctional uracil DNA glycosylase (Homo sapiens) (UniProt Q53HV7); conditions: Hit No;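 note: enzymatic SMUG1 assay coupled with APE1, reading fluorescence at 594 nm released when a quenched double-stranded DNA oligonucleotide substrate is cleaved and separated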
T2 sequence (whole entry): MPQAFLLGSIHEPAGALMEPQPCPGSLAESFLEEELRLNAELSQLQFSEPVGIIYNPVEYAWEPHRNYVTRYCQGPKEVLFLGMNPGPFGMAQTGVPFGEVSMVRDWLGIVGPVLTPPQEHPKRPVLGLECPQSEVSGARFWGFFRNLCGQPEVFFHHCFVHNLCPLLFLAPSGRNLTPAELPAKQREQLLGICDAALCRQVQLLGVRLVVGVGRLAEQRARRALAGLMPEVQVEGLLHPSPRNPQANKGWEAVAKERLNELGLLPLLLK
Description: Inhibition of SMUG1 by quantifying inhibition of SMUG1-mediated cleavage and dissociation of quenched duplex DNA oligonucleotides, measured as fluorescence at 594 nm. To generate a functional strand incision and increase turn-over this assay is coupled to APE1.

[7] = target: Uracil-DNA glycosylase (Homo sapiens) (UniProt P13051); conditions: Hit No;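 note: UNG excision on a quenched double-stranded DNA oligo probe, with APE1 added for strand incision and turnover, read as fluorescence at 594 nm as strands separate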
Chain of Uracil-DNA glycosylase (Homo sapiens) (P13051 whole entry): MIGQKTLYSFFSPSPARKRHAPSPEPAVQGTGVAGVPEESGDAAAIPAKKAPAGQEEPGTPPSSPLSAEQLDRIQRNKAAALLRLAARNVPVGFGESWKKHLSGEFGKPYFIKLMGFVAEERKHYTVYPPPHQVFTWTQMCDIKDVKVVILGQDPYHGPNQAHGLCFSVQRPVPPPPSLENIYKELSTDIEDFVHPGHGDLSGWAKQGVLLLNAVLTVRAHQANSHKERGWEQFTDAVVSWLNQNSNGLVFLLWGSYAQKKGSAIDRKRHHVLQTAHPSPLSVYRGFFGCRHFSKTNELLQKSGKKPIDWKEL
Description: Inhibition of UNG by quantifying inhibition of UNG-mediated cleavage and dissociation of quenched duplex DNA oligonucleotides, measured as fluorescence at 594 nm. To generate a functional strand incision and increase turn-over this assay is coupled to APE1.

[8] = target: T3, Endonuclease III-like protein 1 (Homo sapiens) (UniProt P78549); conditions: Hit No;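 note: enzyme assay tracking NTHL1 cutting and release of a quenched double-stranded DNA oligo substrate, read as fluorescence at 594 nm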
T3 sequence (whole entry): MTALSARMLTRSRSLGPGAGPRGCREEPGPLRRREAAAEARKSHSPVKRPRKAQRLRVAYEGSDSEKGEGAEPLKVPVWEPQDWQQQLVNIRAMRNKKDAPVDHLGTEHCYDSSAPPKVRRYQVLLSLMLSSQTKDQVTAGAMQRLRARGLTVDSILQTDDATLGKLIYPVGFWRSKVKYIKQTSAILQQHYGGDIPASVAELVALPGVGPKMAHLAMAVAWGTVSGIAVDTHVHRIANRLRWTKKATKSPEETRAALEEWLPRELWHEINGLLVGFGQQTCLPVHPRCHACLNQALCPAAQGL
Description: Inhibition of NTHL1 by quantifying inhibition of NTHL1-mediated cleavage and dissociation of quenched duplex DNA oligonucleotides, measured as fluorescence at 594 nm.

[9] = target: Methyl-CpG-binding domain protein 4 (Homo sapiens) (UniProt O95243); conditions: Hit No;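 note: MBD4 activity read as fluorescence at 594 nm from cleavage and release of a quenched duplex DNA oligonucleotide, with APE1 coupled to incise the strand and raise turnover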
Chain of Methyl-CpG-binding domain protein 4 (Homo sapiens) (O95243 whole entry, the tested form may be a part): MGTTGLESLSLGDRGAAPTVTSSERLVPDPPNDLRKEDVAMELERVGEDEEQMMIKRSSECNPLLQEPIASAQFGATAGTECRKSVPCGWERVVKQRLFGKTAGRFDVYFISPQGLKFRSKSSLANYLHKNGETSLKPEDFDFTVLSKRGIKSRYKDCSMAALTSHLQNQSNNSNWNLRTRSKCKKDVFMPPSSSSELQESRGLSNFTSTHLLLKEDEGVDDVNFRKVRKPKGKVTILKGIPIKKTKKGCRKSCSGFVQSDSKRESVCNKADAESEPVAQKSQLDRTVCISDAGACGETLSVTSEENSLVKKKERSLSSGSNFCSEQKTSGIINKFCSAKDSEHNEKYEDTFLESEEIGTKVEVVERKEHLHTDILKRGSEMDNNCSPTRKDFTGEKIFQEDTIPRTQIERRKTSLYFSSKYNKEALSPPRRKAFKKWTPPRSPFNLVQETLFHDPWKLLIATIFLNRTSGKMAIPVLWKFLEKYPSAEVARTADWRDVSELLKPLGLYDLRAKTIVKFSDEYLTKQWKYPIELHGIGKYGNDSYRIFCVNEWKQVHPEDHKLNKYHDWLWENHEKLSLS
Description: Inhibition of MBD4 by quantifying inhibition of MBD4-mediated cleavage and dissociation of quenched duplex DNA oligonucleotides, measured as fluorescence at 594 nm. To generate a functional strand incision and increase turn-over this assay is coupled to APE1.

[10] = target: T4, Adenine DNA glycosylase (Homo sapiens) (UniProt Q9UIF7); conditions: Hit No;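 note: human MUTYH activity read as 594 nm fluorescence from cleavage and release of a quenched DNA duplex, coupled with APE1 for strand incision, lower signal meaning inhibition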
T4 sequence (whole entry): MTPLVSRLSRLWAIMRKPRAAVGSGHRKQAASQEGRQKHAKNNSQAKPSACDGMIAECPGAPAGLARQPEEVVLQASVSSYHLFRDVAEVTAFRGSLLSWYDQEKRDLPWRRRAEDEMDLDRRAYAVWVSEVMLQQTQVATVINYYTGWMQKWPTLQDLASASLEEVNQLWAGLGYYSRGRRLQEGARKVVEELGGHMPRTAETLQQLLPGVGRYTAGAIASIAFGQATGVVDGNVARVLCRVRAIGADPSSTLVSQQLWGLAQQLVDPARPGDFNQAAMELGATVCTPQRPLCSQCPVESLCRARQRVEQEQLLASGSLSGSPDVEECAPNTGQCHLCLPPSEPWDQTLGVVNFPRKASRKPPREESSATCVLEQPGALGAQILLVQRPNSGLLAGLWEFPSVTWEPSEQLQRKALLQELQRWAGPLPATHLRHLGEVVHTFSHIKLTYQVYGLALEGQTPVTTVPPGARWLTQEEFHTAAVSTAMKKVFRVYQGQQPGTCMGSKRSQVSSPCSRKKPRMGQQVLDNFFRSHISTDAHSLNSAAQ
Description: Inhibition of MUTYH by quantifying inhibition of MUTYH-mediated cleavage and dissociation of quenched duplex DNA oligonucleotides, measured as fluorescence at 594 nm. To generate a functional strand incision and increase turn-over this assay is coupled to APE1.

[11] = Compound Concentration 10.0 uM, Hit No
[12] = Compound Concentration 1.0 uM, Hit No

Chain of N-glycosylase/DNA lyase (Homo sapiens) (O15527 whole entry): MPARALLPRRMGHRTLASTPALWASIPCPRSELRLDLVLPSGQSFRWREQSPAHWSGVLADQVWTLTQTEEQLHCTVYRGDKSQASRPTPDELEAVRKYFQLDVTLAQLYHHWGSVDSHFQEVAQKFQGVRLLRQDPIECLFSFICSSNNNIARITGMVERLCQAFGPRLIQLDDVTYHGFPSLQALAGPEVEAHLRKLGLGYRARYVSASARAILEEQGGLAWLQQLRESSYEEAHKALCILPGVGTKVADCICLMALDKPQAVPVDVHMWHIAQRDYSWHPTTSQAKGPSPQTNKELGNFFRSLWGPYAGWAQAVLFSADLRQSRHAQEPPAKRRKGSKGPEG

SMILES	inhibition [1, 11] [%]	inhibition ([2]; Compound Concentration 10.0 uM) [%]	inhibition [3] [%]	inhibition ([4]; Compound Concentration 10.0 uM) [%]	inhibition ([5]; Compound Concentration 10.0 uM) [%]	inhibition ([6]; Compound Concentration 10.0 uM) [%]	inhibition ([7]; Compound Concentration 10.0 uM) [%]	inhibition ([8]; Compound Concentration 10.0 uM) [%]	inhibition [1, 12] [%]	inhibition ([2]; Compound Concentration 1.0 uM) [%]	inhibition ([9]; Compound Concentration 1.0 uM) [%]	inhibition ([9]; Compound Concentration 10.0 uM) [%]	inhibition ([10]; Compound Concentration 10.0 uM) [%]	inhibition ([6]; Compound Concentration 1.0 uM) [%]	inhibition ([7]; Compound Concentration 1.0 uM) [%]	inhibition ([4]; Compound Concentration 1.0 uM) [%]	inhibition ([5]; Compound Concentration 1.0 uM) [%]	inhibition ([8]; Compound Concentration 1.0 uM) [%]	inhibition ([10]; Compound Concentration 1.0 uM) [%]	inhibition ([1]; Compound Concentration 10.0 uM, Hit Yes) [%]
COC(=O)[C@H]1[C@H]2C[C@H]3c4[nH]c5ccccc5c4CCN3C[C@H]2CC[C@@H]1O	-6.57	9.75	14.5	2.02	5.99	–	–	–	–	–	–	–	–	–	–	–	–	–	–	–
CC(C)Oc1ccc(Cc2ccc(NC3=NCCN3)cc2)cc1	–	-6.46	-3.29	0.454	0.0736	-1.14	-3.75	–	–	–	–	–	–	–	–	–	–	–	–	–
Cn1cc(C(=O)OCC2CCN(CCNS(C)(=O)=O)CC2)c2ccccc21	–	2.51	11.2	1.28	-0.888	–	–	–	–	–	–	–	–	–	–	–	–	–	–	–
COc1ccncc1C(=O)NC(=O)Nc1ccc(-c2ccccc2)c(C(F)(F)F)c1	-8.25	-8.22	-3.95	–	-6.05	–	–	–	–	–	–	–	–	–	–	–	–	–	–	–
O=c1ccn([C@@H]2O[C@H](COP(=O)(O)OP(=O)(O)OP(=O)(O)O)[C@@H](O)[C@H]2O)c(=O)[nH]1	-2.46	-9.97	-2.4	-1.39	-4.53	–	–	–	–	–	–	–	–	–	–	–	–	–	–	–
CNC(=O)c1ccc(Nc2ncc(C(F)(F)F)c(NCc3nccnc3N(C)S(C)(=O)=O)n2)cc1	4.66	-7.12	–	2.28	100	23.4	3.52	-7.86	-7.84	-4.88	13.6	16.6	9.35	10.4	-2.6	3.44	43.6	–	–	–
O[C@]1(C(F)(F)F)CCCC[C@H]1Nc1ccc(F)cc1	–	–	–	–	–	–	–	–	-4.39	6.91	54.7	–	–	15.6	2.12	3.35	46.6	4.63	-4.37	–
CC1(C)C(=O)C(C)(C)c2cc(C(=O)Nc3ccc(C(=O)O)cc3)ccc21	9.87	-2.53	–	-2.26	47.5	5.8	-1.52	-7.2	–	–	–	49.5	-4.47	–	–	–	–	–	–	–
Cc1oc2ccccc2c1Cc1cc(I)c(OCC(=O)O)c(I)c1	–	3.34	–	0.619	98.9	47.4	6.35	17.8	–	–	–	67.1	29.3	–	–	–	–	–	–	91.8
CC[C@@H](Nc1c(C#N)c(-c2ccc(-c3cccc(C)c3F)cc2)nc2cnccc12)C(=O)O	31.6	3.25	–	-1.4	49.5	12.3	2.5	2.05	–	–	–	42.6	24.5	–	–	–	–	–	–	–
O=C(Nc1cccnc1)c1cc(-c2ccnc(F)c2)ccc1OCc1ccccc1	6.84	-3.53	–	-5.94	52.5	25.3	2.47	4.27	–	–	–	20.7	3.77	–	–	–	–	–	–	–
Nc1ncnc2c1ncn2[C@@H]1O[C@H](CO)[C@@H](O)[C@H]1O	-6.13	2.76	–	8.25	6.82	-2.21	-7.49	2.66	–	–	–	-3.22	17.8	–	–	–	–	–	–	–
CN1CCN(c2ccnc(NCCc3ccccc3)n2)CC1	9.82	14.1	–	2.13	50.4	8.97	6.53	-9.83	–	–	–	69	16.7	–	–	–	–	–	–	–
CN(C)CC#Cc1ccc2[nH]c3c(c2c1)-c1nc(N)ncc1CCC3	–	–	–	–	–	–	–	–	3.18	4.81	3.44	–	–	11.2	3.22	2.65	46.8	10.6	1.71	–
